Assay results reported in patent US20050288347A1, “Certain triazole-based compounds, compositions, and uses thereof” (priority 2004, published 2005).
“Also recorded” adds a separate entry of the source.

Target: protein kinase
Test: HTS ATP-utilizing enzyme assay, off-chip mobility-shift format (Caliper HTS 250)
Assay type: biochemical, human
Details: test compound 10 μM; for Kinase: kinase(s) for which the compound exhibits protein kinase inhibitory activity, active = greater than three-sigma from the mean activity of inactive compounds; for protein kinase against which the compound exhibits inhibitory activity (Table 3): active = activity greater than three-sigma from the mean of the predominately inactive population for that enzyme
In short: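 Single-point screen at 10 μM compound in HEPES pH 7.5 buffer with Triton X-100 and BSA, 2.5 h at 20–22 °C. Substrate-to-phosphopeptide ratio measured by off-chip microfluidic mobility shift; EDTA wells as 100% and DMSO wells as 0% control, hits called at three-sigma limits.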

Structure (SMILES) | Kinase | protein kinase against which the compound exhibits inhibitory activity (Table 3)
O=C(CSc1nnc(Cn2nnc(-c3ccccc3)n2)n1-c1ccccc1)Nc1ccccc1 | GSK3-α | 
COc1ccc(N2CCN(C(=O)CSc3nnc(-c4cc5ccccc5cc4O)n3C)CC2)cc1 | DAPK1 | 
Cn1c(SCC(=O)N2CCCCCC2)nnc1-c1ccc(S(=O)(=O)N2CCCC2)cc1 | c-TAK1 | 
COc1ccc(NCc2nnc(SCc3ccc([N+](=O)[O-])cc3)n2C)cc1 |  | FYN
Cn1c(CNc2ccc(F)cc2)nnc1SCCN1CCOCC1 |  | PDGFRR-α
COc1ccc(-n2c(Cc3ccccc3)nnc2SCC(=O)N2c3ccccc3Sc3ccccc32)cc1 | SRC and LCK | 
Cn1c(Cn2cnc3ccccc32)nnc1SCC(=O)Nc1ccccc1Cl | FYN | 
COc1ccc(NC(=O)CSc2nnc(-c3ccccc3O)n2-c2ccccc2)c(OC)c1 | CDK1 | 
CCn1c(SCC(=O)c2ccccc2)nnc1C1CCCCC1 [2-(5-cyclohexyl-4-ethyl-4H-1,2,4-triazol-3-ylthio)-1-phenylethanone] | SRC | 
O=C(CSc1nnc(-c2ccc(O)cc2)n1Cc1ccccc1)c1ccccc1 | GSK3-α | 
Fc1ccc(NCc2nnc(S)n2-c2ccccc2)cc1 [5-((4-fluorophenylamino)methyl)-4-phenyl-4H-1,2,4-triazole-3-thiol] | AURORA-A | 
Cc1ccc(NCc2nnc(SCC#N)n2-c2ccccc2)c(C)c1 | AKT1 | 
OCC(O)CSc1nnc(-c2cccnc2)[nH]1 (centres unmarked) [3-(5-(pyridin-3-yl)-4H-1,2,4-triazol-3-ylthio)propane-1,2-diol] |  | AURORA-A
COc1ccccc1-n1c(SCC(=O)O)nnc1C1CCCCC1 [2-(5-cyclohexyl-4-(2-methoxyphenyl)-4H-1,2,4-triazol-3-ylthio)acetic acid] | GSK3-β | 
Cc1ccc(-n2c(Cc3ccccc3)nnc2SCC(=O)N2c3ccccc3Sc3ccccc32)cc1 | CDK2-cyclinE | 
Cc1ccc(NCc2nnc(SCC#N)n2-c2ccccc2)cc1Cl | AURORA-A | 
COc1ccc(-n2c(S)nnc2-c2cccnc2)cc1 [4-(4-methoxyphenyl)-5-(pyridin-3-yl)-4H-1,2,4-triazole-3-thiol] | ABL1 | 
COc1cccc(NC(=O)CSc2nnc(CNc3ccc(C)cc3)n2C)c1 | CHEK2 | 
Cc1ccc(CSc2nnc(-c3ccccc3C)n2C)cc1 [4-methyl-3-(4-methylbenzylthio)-5-o-tolyl-4H-1,2,4-triazole] |  | AKT1
CCn1c(SCC(=O)N2CCc3ccccc3C2)nnc1-c1cc2ccccc2cc1O | DAPK1; also recorded: AURORA-A | 
Nc1c(Cl)cc(-n2c(S)nnc2-c2ccccc2)cc1Cl [4-(4-amino-3,5-dichlorophenyl)-5-phenyl-4H-1,2,4-triazole-3-thiol] | GSK3-β; also recorded: GSK3-α; also recorded: CDK2-cyclinE | 
Ic1cccc(CSc2nnc(-c3ccccc3)[nH]2)c1 [3-(3-iodobenzylthio)-5-phenyl-4H-1,2,4-triazole] |  | AURORA-A; also recorded: c-TAK1

Structure (SMILES) | Kinase | protein kinase against which the compound exhibits inhibitory activity (Table 3)
Cc1ccc(S(=O)(=O)Nc2ccc(-c3nnc(SCC(=O)N4CCCCC4)n3C)cc2)cc1 | AKT1 | 
CCc1ccccc1NC(=O)CSc1nnc(COc2ccc(Cl)cc2)n1C | PDGFRR-α | 
Sc1nnc(CCc2nc3ccccc3[nH]2)n1-c1cccc(Cl)c1 | GSK3-α | 
CCc1ccc(OCc2nnc(S)n2Cc2ccccc2)cc1 [4-benzyl-5-((4-ethylphenoxy)methyl)-4H-1,2,4-triazole-3-thiol] | AKT1 | 
O=[N+]([O-])c1ccc(Sc2nnc(COc3ccccc3)n2-c2ccccc2)c2cccnc12 [8-nitro-5-(5-(phenoxymethyl)-4-phenyl-4H-1,2,4-triazol-3-ylthio)quinoline] | FLT-3; also recorded: PDGFRR-α | 
O=C(CSc1nnc(-c2ccccc2O)n1CCc1ccccc1)Nc1nnc(C(F)(F)F)s1 | AURORA-A | 
N#CCSc1nnc(-c2ccc(O)cc2)n1Cc1ccccc1 [2-(4-benzyl-5-(4-hydroxyphenyl)-4H-1,2,4-triazol-3-ylthio)acetonitrile] | GSK3-β; also recorded: GSK3-α | 
Cc1ccc(NCc2nnc(SCc3nnc(-c4ccccc4)o3)n2CC2CCCO2)c(C)c1 (centres unmarked) |  | SYK
CCn1c(C)nnc1SCc1ccccc1 [3-(benzylthio)-4-ethyl-5-methyl-4H-1,2,4-triazole] |  | GSK3-α
CCn1c(SCC(=O)N2CCN(c3ccc(OC)cc3)CC2)nnc1-c1ccc(O)cc1 | SYK | 
CCn1c(CNc2cccc(Cl)c2)nnc1SCC(=O)Nc1ccc(C(C)=O)cc1 | CDK1 | 
COc1ccc(NCc2nnc(SCC(=O)Nc3ccc(Br)cc3)n2C)cc1 | PDGFRR-α and FYN and AURORA-A | 
Cc1ccc(-c2nnc(SCC(=O)O)n2-c2ccc(C)cc2)cc1 [2-(4,5-dip-tolyl-4H-1,2,4-triazol-3-ylthio)acetic acid] | DAPK1 | 
Cn1c(SCc2ccc(Cl)cc2)nnc1-c1ccncc1 [4-(5-(4-chlorobenzylthio)-4-methyl-4H-1,2,4-triazol-3-yl)pyridine] |  | AURORA-A and MSK1
Cn1c(Cn2nnc3ccccc32)nnc1SCC(=O)C1c2ccccc2CCc2ccccc21 |  | MAPKAPK-2
COc1ccccc1-n1c(SCCC2COCCN2)nnc1-c1cccc(Cl)c1 (centres unmarked) |  | ROCK2
COC(=O)c1ccccc1NC(=O)CSc1nnc(-c2ccc(O)cc2)n1Cc1ccccc1 | AKT3 and GSK3-β and GSK3-α | 
Cc1ccc(S(=O)(=O)Nc2ccc(-c3nnc(S)n3C)cc2)cc1 | AURORA-A; also recorded: CDK2-cyclinA; also recorded: CHEK2 | 
CCOc1ccc(NCc2nnc(SCCN3CCOCC3)n2-c2ccc(OC)cc2)cc1 |  | FYN
Cc1nnc(SCc2ccccc2C#N)[nH]1 [2-((5-methyl-4H-1,2,4-triazol-3-ylthio)methyl)benzonitrile] |  | AURORA-A; also recorded: GSK3-β; also recorded: GSK3-α
CCn1c(SCC(=O)N2CCCC2)nnc1-c1ccc(S(=O)(=O)N2CCCCCC2)cc1 | AURORA-A | 
CCc1nnc(NC(=O)CSc2nnc(-c3cccc(C)c3)n2CC)s1 | LCK | 

Structure (SMILES) | Kinase | protein kinase against which the compound exhibits inhibitory activity (Table 3)
CCOC(=O)CSc1nnc(COc2ccc3ccccc3c2)n1C | MAPKAPK-2 | 
COc1ccc(-c2nnc(SCc3ccc(S(C)(=O)=O)cc3)[nH]2)cc1 [3-(4-methoxyphenyl)-5-(4-(methylsulfonyl)benzylthio)-4H-1,2,4-triazole] |  | FLT-3
COCCNC(=O)CSc1nnc(-c2ccccc2O)n1-c1ccccc1OC |  | KIT
CCn1c(SCC(=O)Nc2nc3c(s2)CCCC3)nnc1-c1cc2ccccc2cc1O | AURORA-A; also recorded: CDK2-cyclinE | 
CCn1c(COc2ccc(Cl)c(C)c2)nnc1SCC(=O)N1CCCCC1 | FYN | 
Cc1cccc(-c2nnc(SCCN3CCOCC3)[nH]2)c1 [4-(2-(5-m-tolyl-4H-1,2,4-triazol-3-ylthio)ethyl)morpholine] |  | AURORA-A; also recorded: GSK3-β; also recorded: GSK3-α
COC(=O)c1ccc(CSc2nnc(-c3cccc(C)c3)[nH]2)cc1 [methyl 4-((5-m-tolyl-4H-1,2,4-triazol-3-ylthio)methyl)benzoate] |  | AURORA-A; also recorded: FLT-3; also recorded: c-TAK1
C=C(C)Cn1c(SCC(=O)NN)nnc1-c1ccc(Br)cc1 |  | LCK
N#Cc1ccccc1CSc1nnc(-c2cccs2)[nH]1 [2-((5-(thiophen-2-yl)-4H-1,2,4-triazol-3-ylthio)methyl)benzonitrile] |  | AURORA-A; also recorded: CHEK2; also recorded: GSK3-α
O=C(CSc1nnc[nH]1)c1ccc(O)cc1O [2-(4H-1,2,4-triazol-3-ylthio)-1-(2,4-dihydroxyphenyl)ethanone] | GSK3-α | 
CC(C)Sc1nnc(-c2ccc(NS(C)(=O)=O)cc2)n1C |  | CDK2-cyclinA
O=C(CSc1nnc(-c2ccncc2)[nH]1)c1c[nH]c2ccccc12 [1-(1H-indol-3-yl)-2-(5-(pyridin-4-yl)-4H-1,2,4-triazol-3-ylthio)ethanone] | CHEK2 and AURORA-A and PKA | 
Nc1nncn1C(=O)Cc1ccc(Cl)cc1 [1-(3-amino-4H-1,2,4-triazol-4-yl)-2-(4-chlorophenyl)ethanone] | GSK-3-α; also recorded: GSK-3-β | 
CC(C)=CCSc1nnc(Cc2ccccc2)n1Cc1ccc(Cl)c(Cl)c1 |  | c-TAK1
c1csc(-c2nnc(SCC3CCCCC3)[nH]2)c1 [3-(cyclohexylmethylthio)-5-(thiophen-2-yl)-4H-1,2,4-triazole] |  | AURORA-A; also recorded: DYRK2
Cn1c(SCC(=O)NCc2ccco2)nnc1-c1ccc(NC(=O)c2ccccc2)cc1 | CHEK2 | 
O=C(O)CSc1nnc(-c2cccnc2)n1Cc1ccco1 [2-(4-(furan-2-ylmethyl)-5-(pyridin-3-yl)-4H-1,2,4-triazol-3-ylthio)acetic acid] | DAPK1; also recorded: GSK3-β; also recorded: AURORA-A | 
CCn1c(SCC(=O)Nc2cc(OC)c(OC)cc2C(=O)O)nnc1-c1ccc(O)cc1 | AURORA-A | 
Cc1ccc(NCc2nnc(S)n2CC2CCCO2)cc1Cl (centres unmarked) | GSK3-β; also recorded: GSK3-α | 
CC(Sc1nnc(COc2ccccc2)n1-c1ccccc1)C(=O)O (centres unmarked) [2-(5-(phenoxymethyl)-4-phenyl-4H-1,2,4-triazol-3-ylthio)propanoic acid] | FYN | 
c1csc(-c2nnc(SCCN3CCCC3)[nH]2)c1 [3-(2-(pyrrolidin-1-yl)ethylthio)-5-(thiophen-2-yl)-4H-1,2,4-triazole] |  | GSK3-α; also recorded: GSK3-β; also recorded: DYRK2
